Reference: patent US11964986B1, “9-oxo-9,10-dihydro-6H-pyrano[3,2-b:4,5-b′]dipyridine-8-carboxylic acid derivatives” (REJUVERON TELOMERE THERAPEUTICS AG, priority 2023, dated 2024)
Values after ≈ are worked out from the molar mass of the structure shown. Like-named read-outs stand apart in the source and are kept apart here.

What was measured:
[1] = system: HBsAg secretion in HepG2/2.2.15 WT cells (combined effect of PAPD5 and PAPD7 inhibition)
Protocol: (§1) The hepatocarcinoma HepG2/2.2.15 cell line (hereafter referred to as wild type) was obtained from Millipore (SCC249) and HepG2/2.2.15 PAPD5 knock-out (PAPD5 KO) and PAPD7 knock-out (PAPD7 KO) cells were generated using CRISPR/Cas9 technology.
An ELISA was performed using a hepatocarcinoma HepG2/2.2.15 wild type (WT) cell line to assess the potential of the compounds of the present invention as treatments of chronic HBV infection.
(§2) Cell seeding and addition of the compounds: On day −1, HepG2/2.2.15 cell lines were seeded in U-bottom 96-well plates (Fisher Scientific, 10777241) at a density of 1,5×10^4 cells/well in a final volume of 200 μL complemented DMEM/F12. On day 0, medium was aspirated and cells were washed once with PBS (300 μL/well). Then, PBS was replaced with complemented DMEM/F12 (200 μL/well). Using a Tecan-TE300e chemical dispenser, the compounds were added to the cells with 11 half-log incremental dilutions in dimethyl sulfoxide (DMSO) (Sigma-Aldrich, 276855) within the highest concentration equal to 25 μM (concentration range 1). DMSO was used as no-drug control, and the final DMSO concentration in all wells was 0.5%. […] On day 4, the 96-well plate was centrifuged for 5 min at 300 g to spin down cell debris. 100 μL/well of cell culture supernatant were collected and diluted 1:2 with 100 μL of complemented DMEM/F12 to perform the ELISA.
(§3) ELISA: Before starting, the “Hepatitis B surface antigen ELISA kit” (Abnova, KA0286) was equilibrated at room temperature (RT) for 1 h. […] The anti-HB plate was sealed using adhesive foil provided with the kit and incubated for 1 h at 37° C. […] After the last wash, the residual liquid was removed by turning the plate upside down and tapping on adsorbent paper. TMB substrate solutions A and B were mixed in equal volumes and 100 μL/well of this mixture were added to each well. The plate was covered with the supplied tray and incubated at RT for 20 min. During this time, a color develops in proportion to the amount of HBsAg bound to anti-HBs. After incubation, the reaction was stopped by adding 100 μL/well of 2N aqueous H2SO4 solution. The optical density of the developed color was read at 450 nm using a Cytation 5 instrument with reference wavelength at 620 nm.
(§4) CCK8 viability assay: Viability of HepG2/2.2.15 WT, PAPD5 KO and PAPD7 KO cell lines treated with the compounds was determined using the Cell Counting Kit-8 (CCK8, Sigma-Aldrich, 96992) following the manufacturer's instructions. […] During this time, WST-8 is reduced by dehydrogenases in cells to give a yellow-colored product (formazan), which is soluble in the tissue culture medium. The amount of the formazan dye generated by the activity of dehydrogenases in cells is directly proportional to the number of living cells. After 1 h incubation, the optical density of the developed color was read at 450 nm using a Cytation 5 instrument with the reference wavelength at 620 nm. CCK8 optical density values were used for normalization of the ELISA results.
To determine the IC50 values, the amount of HBsAg (optical density values of the ELISA) was corrected by the number of living cells (CCK8 optical density) per each well. Normalized HBsAg values were used to generate a dose-response curve with a non-linear regression model and applying the Levenberg-Marquardt algorithm. The percentage of inhibition was calculated relative to the untreated condition (DMSO CTRLs).

PAPD5 [2] = molecular target: T1, PAPD5 (Homo sapiens, UniProt Q8NDF8); assay: cell-based; parameters: endogenous in cells; host or cells: HepG2/2.2.15 PAPD7 knock-out cells (CRISPR/Cas9); conditions: for Fold sel. for PAPD5 over PAPD7: PAPD7 KO cells vs PAPD5 KO cells
T1 sequence (Q8NDF8 whole entry): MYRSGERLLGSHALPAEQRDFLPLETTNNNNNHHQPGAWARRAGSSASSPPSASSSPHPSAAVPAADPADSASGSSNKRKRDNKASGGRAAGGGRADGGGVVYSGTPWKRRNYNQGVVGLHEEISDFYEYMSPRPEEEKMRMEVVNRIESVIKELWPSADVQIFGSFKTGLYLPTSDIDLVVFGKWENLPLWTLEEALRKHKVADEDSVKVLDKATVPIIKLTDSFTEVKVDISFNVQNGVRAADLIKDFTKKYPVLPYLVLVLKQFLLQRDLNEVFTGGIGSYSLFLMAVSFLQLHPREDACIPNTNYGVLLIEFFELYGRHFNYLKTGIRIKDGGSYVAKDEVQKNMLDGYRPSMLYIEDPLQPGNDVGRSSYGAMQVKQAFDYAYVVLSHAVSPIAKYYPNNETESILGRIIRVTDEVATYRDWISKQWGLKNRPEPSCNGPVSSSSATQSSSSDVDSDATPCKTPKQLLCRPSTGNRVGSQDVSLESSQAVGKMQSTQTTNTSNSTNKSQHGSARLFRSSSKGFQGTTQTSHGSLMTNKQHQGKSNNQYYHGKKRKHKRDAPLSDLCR
Protocol: as §1
To this end, all compounds of the present invention were also tested in an ELISA on HepG2/2.2.15 PAPD5 and PAPD7 KO cell lines to determine the compounds' potency to inhibit PAPD5 and their selectivity for PAPD5 over PAPD7.
as §2, §3, §4
To determine the IC50 values, the amount of HBsAg (optical density values of the ELISA) was corrected by the number of living cells (CCK8 optical density) per each well. Normalized HBsAg values were used to generate a dose-response curve with a non-linear regression model and applying the Levenberg-Marquardt algorithm.

PAPD7 = PAPD7 (Homo sapiens, UniProt Q5XG87); assay: HBsAg ELISA in HepG2/2.2.15 PAPD5 KO cells (PAPD7 inhibitory activity); format: cell-based; conditions: Table 3, HBsAg secretion, 4 days, read-out: pIC50 PAPD7 (PAPD5 KO cells) (converted)
Sequence of PAPD7 (Q5XG87 whole entry, the tested form may be a part): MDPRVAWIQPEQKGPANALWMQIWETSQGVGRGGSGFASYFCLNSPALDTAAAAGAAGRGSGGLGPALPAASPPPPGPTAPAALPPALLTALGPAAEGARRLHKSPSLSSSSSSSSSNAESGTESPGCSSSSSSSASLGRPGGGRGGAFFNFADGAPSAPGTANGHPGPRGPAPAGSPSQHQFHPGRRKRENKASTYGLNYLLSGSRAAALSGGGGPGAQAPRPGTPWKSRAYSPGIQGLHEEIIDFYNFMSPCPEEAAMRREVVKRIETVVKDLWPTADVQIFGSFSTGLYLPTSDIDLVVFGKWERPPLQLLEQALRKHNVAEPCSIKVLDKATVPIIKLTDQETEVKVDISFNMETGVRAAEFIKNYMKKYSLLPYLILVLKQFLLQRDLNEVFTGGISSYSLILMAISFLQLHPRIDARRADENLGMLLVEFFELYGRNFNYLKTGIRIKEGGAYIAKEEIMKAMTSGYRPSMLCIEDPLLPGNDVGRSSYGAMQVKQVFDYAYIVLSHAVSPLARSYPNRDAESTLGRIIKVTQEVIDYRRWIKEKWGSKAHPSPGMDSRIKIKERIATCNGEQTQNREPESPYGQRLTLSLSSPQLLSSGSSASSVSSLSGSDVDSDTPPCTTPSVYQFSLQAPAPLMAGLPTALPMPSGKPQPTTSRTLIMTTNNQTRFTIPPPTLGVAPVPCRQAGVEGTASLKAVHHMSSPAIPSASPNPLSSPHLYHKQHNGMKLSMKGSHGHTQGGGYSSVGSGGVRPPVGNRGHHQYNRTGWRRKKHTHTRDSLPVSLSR

[3] = system: telomere length in patient-derived iPSCs; assay: Telomere restriction fragment (TRF) analysis in patient-derived iPSCs; conditions: for telomere elongation: 4-week treatment, increasing concentrations, FIG. 2B
Protocol: Healthy donor- and patient-derived induced Pluripotent Stem Cells (iPSCs), described in Moon et al. 2015, were cultured in feeder-free condition using Matrigel hESC-qualified matrix (Corning, 354277) coated cell culture dishes. For coating, one aliquot of Corning Matrigel hESC-qualified matrix (approximately 300 μL) was thawed on ice and diluted in 25 mL ice-cold DMEM/F-12. […] The coating solution was kept on ice and Matrigel was handled using ice-cold pipette tips. 6 mL of the coating solution were added to one 10 cm cell culture dish and spread by gentle rocking. The coated dishes were then incubated at RT for at least 30 min to let the matrix solidify. The coating solution was aspirated from the dishes and cells were seeded immediately. […] Cells were incubated shortly at 37° C. and the colonies were briefly disaggregated by gentle pipetting or by agitation. The single cell suspension was transferred in a canonical tube with cold 1× PBS and centrifuged at 300 g for 5 min to remove Accutase. Cell pellet was resuspended in an appropriate volume of complemented Essential E8 medium and seeded in a Matrigel-coated dish according to the split ratio.
The scope of this assay is to isolate telomeric DNA from healthy donor- and patient-derived iPSCs and determine the average length of isolated telomeres.
The compounds were dissolved in DMSO at a 10 mM stock concentration and diluted in complemented Essential E8 medium at the reported concentrations (Table 6). For untreated samples (0 nM) DMSO only was added to the medium. Culture medium with the diluted compound was replaced daily, and cells were subcultured as described above.
To carry out the cellular assays, cells were cultured in the presence of PAPD5 inhibitors and collected at different time points. […] (2) At week 4 (Day 28), cells were harvested for DNA isolation to perform Telomere Restriction Fragment (TRF) analysis. […]
Genomic DNA extraction: At day 28 of exposure, 2×10^6 iPSCs per condition were pelleted and resuspended in 200 μl PBS. […] DNA quantification was performed using a Qubit dsDNA BR quantification kit. […]

PAPD5 [4] = molecular target: T1, PAPD5; assay: Degree of PAPD5 target engagement calculated for test concentrations in assays using iPSCs; parameters: endogenous in cells
Description: (§5) In the ELISA 10% plasma protein (p=0.1) is used, whereas the assays using iPSCs are run in a plasma protein-free medium.

[5] = system: TERC in patient-derived iPSCs; assay: TERC stability by RLM-RACE in patient-derived iPSCs; conditions: 1-week treatment, FIG. 2A
Protocol: For coating, one aliquot of Corning Matrigel hESC-qualified matrix (approximately 300 μL) was thawed on ice and diluted in 25 mL ice-cold DMEM/F-12. […] The coating solution was kept on ice and Matrigel was handled using ice-cold pipette tips. 6 mL of the coating solution were added to one 10 cm cell culture dish and spread by gentle rocking. The coated dishes were then incubated at RT for at least 30 min to let the matrix solidify. The coating solution was aspirated from the dishes and cells were seeded immediately. […] Cells were incubated shortly at 37° C. and the colonies were briefly disaggregated by gentle pipetting or by agitation. The single cell suspension was transferred in a canonical tube with cold 1× PBS and centrifuged at 300 g for 5 min to remove Accutase. Cell pellet was resuspended in an appropriate volume of complemented Essential E8 medium and seeded in a Matrigel-coated dish according to the split ratio.
The compounds were dissolved in DMSO at a 10 mM stock concentration and diluted in complemented Essential E8 medium at the reported concentrations (Table 6). […]
Samples were spun at 12000 g for 10 min at 4° C. […] The RNA concentration was measured using a Qubit HS RNA quantification kit (Thermo Fisher, Q32852). […]
DNA was stored overnight at −20° C. before loading on agarose gel. PCR products were quantified using a Qubit dsDNA BR quantification kit (Thermo Fisher, Q32850). […]

logD(pH 7.4) = format: physicochemical
[6] = kinetic solubility assay at pH 6.5; format: physicochemical; conditions: for solubility kinetic: pH 6.5, kinetic from dmso stock
HBsAg = conditions: Table 4; effective concentration that achieved 50% inhibitory effect; from WO2019177937; cited from earlier work
[7] = Plasma protein binding (fraction unbound)
Description: as §5

[8] = Table 3, HepG2/2.2.15 PAPD7 KO cells, HBsAg secretion, 4 days, read-out: pIC50 PAPD5 (PAPD7 KO cells) (converted)
[9] = Table 5, PAPD7 KO cells, read-out: PIC50 PAPD5 (PAPD7 KO cells) (converted)
[10] = PAPD5 IC50 by ELISA, HepG2/2.2.15 PAPD7 KO cell line, 10% plasma protein, read-out: IC50ELISA
[11] = unbound IC50 in protein-free medium, IC50ELISA*fu,ELISA, read-out: IC50u

Compound: COCCCOc1cc2c(nc1OC)-c1c(cc(C(=O)O)c(=O)n1CC(F)F)C(C(C)C)O2 (racemic) [Example 511, (RS)-10-(2,2-Difluoroethyl)-6-isopropyl-2-methoxy-3-(3-methoxypropoxy)-9-oxo-9,10-dihydro-6H-pyrano[3,2-b:4,5-b′]dipyridine-8-carboxylic acid]
- IC50 [1]: 1.26 nM
- IC50 (PAPD5 [2]; [8]): 0.794 nM
- Fold sel. for PAPD5 over PAPD7 (PAPD5 [2]; Table 3): 6.9 Fold
- IC50 (PAPD7): 5.01 nM

Compound: COCCCOc1cc2c(nc1OC)-c1c(cc(C(=O)O)c(=O)n1C1CC1)C(C(C)(C)C)C2 (racemic) [Example 702, (RS)-5-(tert-Butyl)-1-cyclopropyl-9-methoxy-8-(3-methoxypropoxy)-2-oxo-1,2,5,6-tetrahydro-1,10-phenanthroline-3-carboxylic acid, reference compound]
- IC50 [1]: 2.51 nM
- IC50 (PAPD5 [2]; [9]): 3.16 nM

Compound: CCn1c2c(cc(C(=O)O)c1=O)C(C(C)C)Oc1cc(OCCCOC)c(OC)nc1-2 (racemic) [Example 503, (RS)-10-Ethyl-6-isopropyl-2-methoxy-3-(3-methoxypropoxy)-9-oxo-9,10-dihydro-6H-pyrano[3,2-b:4,5-b′]dipyridine-8-carboxylic acid]
- IC50 [1]: 1.26 nM
- IC50 (PAPD5 [2]; [8]): 1 nM
- Fold sel. for PAPD5 over PAPD7 (PAPD5 [2]; Table 3): 5.9 Fold
- IC50 (PAPD7): 5.01 nM

Compound: COCCCOc1cc2c(cc1OC)-c1cc(=O)c(C(=O)O)cn1[C@H](C(C)C)C2 [RG7834]
- telomere elongation [3]: dose-dependently effects telomere elongation
- fu, plasma: 0.328
- fu, ELISA (plasma): 0.83
- % Target engagement (X) (PAPD5 [4]; test conc. 0.3 nM): 16%
- % Target engagement (X) (PAPD5 [4]; test conc. 1 nM): 38%
- % Target engagement (X) (PAPD5 [4]; test conc. 3 nM): 65%
- % Target engagement (X) (PAPD5 [4]; test conc. 10 nM): 86%
- % Target engagement (X) (PAPD5 [4]; test conc. 30 nM): 95%
- levels of the mature and stable form of TERC [5]: restores the steady-state and physiological levels of the mature and stable form of TERC
- IC50 (PAPD5 [2]; [10]): 1.64 nM
- IC50 (PAPD5 [2]; [11]): 1.35 nM

Compound: COCCCOc1cc2c(cc1OC)-c1c(cc(C(=O)O)c(=O)n1C1CC1)C(C(C)(C)C)O2 (racemic) [Example 802, (RS)-5-(tert-Butyl)-1-cyclopropyl-9-methoxy-8-(3-methoxypropoxy)-2-oxo-1,5-dihydro-2H-chromeno[4,3-b]pyridine-3-carboxylic acid, reference compound]
- IC50 [1]: 1 nM

Compound: COCCCOc1cc2c(nc1OC)-c1[nH]c(=O)c(C(=O)O)cc1C(C(C)(C)C)O2 (racemic) [Example 505, (RS)-6-(tert-Butyl)-2-methoxy-3-(3-methoxypropoxy)-9-oxo-9,10-dihydro-6H-pyrano[3,2-b:4,5-b′]dipyridine-8-carboxylic acid]
- IC50 [1]: 2 nM
- logD (logD(pH 7.4)): 1.1
- fold more soluble than example 701 ([6]; kinetic solubility assay at pH 6.5): 2.6 fold
- solubility kinetic [6]: 484 µM (≈ 203 µg/mL)
- IC50 (PAPD5 [2]; [8]): 2 nM
- Fold sel. for PAPD5 over PAPD7 (PAPD5 [2]; Table 3): 4.9 Fold
- IC50 (PAPD5 [2]; [9]): 2 nM
- IC50 (PAPD7): 10 nM

Compound: COCCCOc1cc2c(nc1OC)-c1c(cc(C(=O)O)c(=O)n1CCO)C(C(C)C)O2 (racemic) [Example 510, (RS)-10-(2-Hydroxyethyl)-6-isopropyl-2-methoxy-3-(3-methoxypropoxy)-9-oxo-9,10-dihydro-6H-pyrano[3,2-b:4,5-b′]dipyridine-8-carboxylic acid]
- IC50 [1]: 15.8 nM
- IC50 (PAPD5 [2]; [8]): 5.01 nM
- Fold sel. for PAPD5 over PAPD7 (PAPD5 [2]; Table 3): 6.4 Fold
- IC50 (PAPD7): 31.6 nM

Compound: COCCCOc1cc2c(nc1OC)-c1[nH]c(=O)c(C(=O)O)cc1C1(CCCC1)O2 [Example 509, 2′-Methoxy-3′-(3-methoxypropoxy)-9′-oxo-9′,10′-dihydrospiro[cyclopentane-1,6′-pyrano[3,2-b:4,5-b′]dipyridine]-8′-carboxylic acid]
- IC50 [1]: 25.1 nM
- IC50 (PAPD5 [2]; [8]): 31.6 nM
- Fold sel. for PAPD5 over PAPD7 (PAPD5 [2]; Table 3): 10.4 Fold
- IC50 (PAPD7): 316 nM

Compound: COCCCOc1cc2c(nc1C1CC1)-c1c(cc(C(=O)O)c(=O)n1C1CC1)C(C(C)(C)C)O2 (racemic) [Example 508, (RS)-6-(tert-butyl)-2,10-dicyclopropyl-3-(3-methoxypropoxy)-9-oxo-9,10-dihydro-6H-pyrano[3,2-b:4,5-b′]dipyridine-8-carboxylic acid]
- IC50 [1]: 0.0631 nM
- IC50 (PAPD5 [2]; [8]): 0.1 nM
- Fold sel. for PAPD5 over PAPD7 (PAPD5 [2]; Table 3): 1.0 Fold
- IC50 (PAPD7): 0.1 nM

Compound: COCCCOc1cc2c(cc1OC)-c1[nH]c(=O)c(C(=O)O)cc1C(C(C)(C)C)O2 (racemic) [Example 801, (RS)-5-(tert-Butyl)-9-methoxy-8-(3-methoxypropoxy)-2-oxo-1,5-dihydro-2H-chromeno[4,3-b]pyridine-3-carboxylic acid, reference compound]
- IC50 [1]: 39.8 nM
- IC50 (PAPD5 [2]; [9]): 50.1 nM

Compound: COCCCOc1cc2c(nc1C1CC1)-c1[nH]c(=O)c(C(=O)O)cc1C(C(C)(C)C)O2 (racemic) [Example 507, (RS)-6-(tert-Butyl)-2-cyclopropyl-3-(3-methoxypropoxy)-9-oxo-9,10-dihydro-6H-pyrano[3,2-b:4,5-b′]dipyridine-8-carboxylic acid]
- IC50 [1]: 0.794 nM
- IC50 (PAPD5 [2]; [8]): 0.398 nM
- Fold sel. for PAPD5 over PAPD7 (PAPD5 [2]; Table 3): 1.8 Fold
- IC50 (PAPD7): 0.631 nM

Compound: COCCCOc1cc2c(nc1OC)-c1[nH]c(=O)c(C(=O)O)cc1C(C(C)(C)C)C2 (racemic) [Example 701, (RS)-5-(tert-Butyl)-9-methoxy-8-(3-methoxypropoxy)-2-oxo-1,2,5,6-tetrahydro-1,10-phenanthroline-3-carboxylic acid, reference compound]
- logD (logD(pH 7.4)): 1.4
- solubility kinetic [6]: 186 µM (≈ 77.3 µg/mL)

Compound: COCCCOc1cc2c(nc1OC)-c1c(cc(C(=O)O)c(=O)n1C)C(C(C)C)O2 (racemic) [Example 502, (RS)-6-Isopropyl-2-methoxy-3-(3-methoxypropoxy)-10-methyl-9-oxo-9,10-dihydro-6H-pyrano[3,2-b:4,5-b′]dipyridine-8-carboxylic acid]
- IC50 [1]: 6.31 nM
- IC50 (PAPD7): 12.6 nM

Compound: COCCCOc1cc2c(nc1OC)-c1c(cc(C(=O)O)c(=O)n1C1CC1)C(C(C)C)O2 (racemic) [Example 504, (RS)-10-Cyclopropyl-6-isopropyl-2-methoxy-3-(3-methoxypropoxy)-9-oxo-9,10-dihydro-6H-pyrano[3,2-b:4,5-b′]dipyridine-8-carboxylic acid]
- IC50 [1]: 0.501 nM
- IC50 (PAPD5 [2]; [8]): 0.631 nM
- Fold sel. for PAPD5 over PAPD7 (PAPD5 [2]; Table 3): 4.8 Fold
- IC50 (PAPD7): 2.51 nM

Compound: (RS)-6-Isopropyl-2-methoxy-3-(3-methoxypropoxy)-9-oxo-9,10-dihydro-6H-pyrano[3,2-b:4,5-b′]dipyridine-8-carboxylic acid [Example 501]
- EC50 (HBsAg): 94 nM

Compound: COCCCOc1cc2c(nc1OC)-c1[nH]c(=O)c(C(=O)O)cc1C(C(C)C)O2 (racemic) [Example 501, (RS)-6-Isopropyl-2-methoxy-3-(3-methoxypropoxy)-9-oxo-9,10-dihydro-6H-pyrano[3,2-b:4,5-b′]dipyridine-8-carboxylic acid]
- IC50 [1]: 7.94 nM
- IC50 (PAPD5 [2]; [8]): 6.31 nM
- Fold sel. for PAPD5 over PAPD7 (PAPD5 [2]; Table 3): 7.1 Fold
- IC50 (PAPD7): 39.8 nM

Compound: COCCCOc1cc2c(nc1OC)-c1c(cc(C(=O)O)c(=O)n1C1CC1)C(C(C)(C)C)O2 (racemic) [Example 506, (RS)-6-(tert-Butyl)-10-cyclopropyl-2-methoxy-3-(3-methoxypropoxy)-9-oxo-9,10-dihydro-6H-pyrano[3,2-b:4,5-b′]dipyridine-8-carboxylic acid]
- telomere length after elongation ([3]; 0.5 nM, 4 weeks of treatment): up to 8 kb
- telomere elongation [3]: dose-dependently effects telomere elongation
- IC50 [1]: 0.2 nM
- fraction unbound [7]: 0.347
- fraction unbound ([7]; fu, ELISA, fraction unbound in ELISA, calculated with p = 0.1): 0.84
- % Target engagement (X) (PAPD5 [4]; test conc. 0.1 nM): 54%
- % Target engagement (X) (PAPD5 [4]; test conc. 0.5 nM): 86%
- % Target engagement (X) (PAPD5 [4]; test conc. 2.5 nM): 97%
- levels of the mature and stable form of TERC [5]: restores the steady-state and physiological levels of the mature and stable form of TERC
- IC50 (PAPD5 [2]; [10]): 0.0847 nM
- Fold sel. for PAPD5 over PAPD7 (PAPD5 [2]; Table 3): 6.1 Fold
- IC50 (PAPD5 [2]; [9]): 0.0794 nM
- IC50 (PAPD5 [2]; [11]): 0.07 nM
- IC50 (PAPD7): 0.501 nM
